Reference: ChEMBL document CHEMBL5352404, “Synthesis and evaluation of novel furanones as biofilm inhibitors in opportunistic human pathogens” (Eur J Med Chem, 2022)
The source made the active and inactive calls. No cut-off for these calls is given here.

Tests used:
[1] = system: Stenotrophomonas maltophilia; experiment: Inhibition of biofilm formation in Stenotrophomonas maltophilia K279a at 50 uM incubated for 24 hrs by crystal violet staining based analysis; assay type: functional, organism-based
Pseudomonas aeruginosa [2] = experiment: Antibacterial activity against Pseudomonas aeruginosa PAR7244 assessed as bacterial growth inhibition at 50 uM incubated for 20 hrs by broth microdilution method; assay type: functional, organism-based
HK-2 = experiment: Cytotoxicity against human HK-2 cells assessed as reduction in cell survival at 50 uM incubated for 24 to 48 hrs by MTT assay; assay type: toxicity, cell-based; conditions: hk-2, 50 µM, time 24-48 hrs
Candida albicans [3] = experiment: Inhibition of biofilm formation in Candida albicans M2396 at 50 uM incubated for 24 hrs by crystal violet staining based analysis; assay type: functional, organism-based
Candida albicans [4] = experiment: Antibiofilm activity against Candida albicans M2396/Pseudomonas aeruginosa PA01 dual-species at 50 uM incubated for 24 hrs by confocal laser-scanning microscopy; assay type: functional, organism-based
[5] = Toxicity in Galleria mellonella larvae assessed as signs of melanization at 100 uM
Pseudomonas aeruginosa [6] = experiment: Antibiofilm activity against Pseudomonas aeruginosa PAR7244 assessed as reduction in biofilm formation at 50 uM incubated for 24 hrs by crystal violet staining based analysis; assay type: functional, organism-based
Pseudomonas aeruginosa [7] = experiment: Antibacterial activity against eYFP labeled Pseudomonas aeruginosa PAO1 assessed as inhibition of bacterial growth at 50 uM incubated for 20 hrs by broth microdilution method relative to control; assay type: functional; design: scale not given: the % may be the effect or the level left
Escherichia coli [8] = experiment: Antibiofilm activity against Escherichia coli ATCC 9637 assessed as reduction in biofilm formation at 50 uM incubated for 24 hrs by crystal violet staining based assay; assay type: functional, organism-based
Candida albicans [9] = experiment: Antibiofilm activity against Candida albicans M2396 at 50 uM incubated for 24 hrs by confocal laser-scanning microscopy; assay type: functional, organism-based
[10] = system: Stenotrophomonas maltophilia; experiment: Antibacterial activity against Stenotrophomonas maltophilia K279a assessed as bacterial growth inhibition at 50 uM incubated for 20 hrs by broth microdilution method; assay type: functional, organism-based
Candida albicans [11] = experiment: Inhibition of biofilm formation in developmental phase of Candida albicans M2396 at 50 uM incubated for 24 hrs by crystal violet staining based analysis; assay type: functional, organism-based
[12] = Toxicity in Galleria mellonella larvae assessed as reduction in animal survival at 100 uM
Pseudomonas aeruginosa [13] = experiment: Inhibition of biofilm formation in eYFP labeled Pseudomonas aeruginosa PAO1 at 50 uM incubated for 24 hrs by crystal violet staining based analysis relative to control; assay type: functional
Candida albicans [14] = experiment: Antifungal activity against RFP-expressing Candida albicans M2396 assessed as fungal growth inhibition at 50 uM incubated for 20 hrs by microplate reader analysis; assay type: functional, organism-based
Staphylococcus aureus = experiment: Inhibition of biofilm formation in Staphylococcus aureus Newman ATCC 25904 at 50 uM incubated for 24 hrs by crystal violet staining based assay relative to control; assay type: functional
Salmonella typhimurium [15] = experiment: Antibiofilm activity against Salmonella enterica subsp. enterica serovar Typhimurium assessed as reduction in biofilm formation at 50 uM incubated for 24 hrs by crystal violet staining based assay relative to control; assay type: functional; design: scale not given: the % may be the effect or the level left
Candida albicans [16] = experiment: Inhibition of biofilm formation in RFP-expressing Candida albicans M2396 at 50 uM incubated for 24 hrs by crystal violet staining based analysis relative to control; assay type: functional
Salmonella typhimurium [17] = experiment: Antibacterial activity against Salmonella enterica subsp. enterica serovar Typhimurium assessed as bacterial growth inhibition at 50 uM incubated for 20 hrs by broth microdilution method; assay type: functional, organism-based
Pseudomonas aeruginosa [18] = experiment: Antibiofilm activity against Pseudomonas aeruginosa PAR7244 assessed as reduction in biofilm formation at 50 uM incubated for 24 hrs by crystal violet staining based analysis relative to control; assay type: functional; design: scale not given: the % may be the effect or the level left
Pseudomonas aeruginosa [19] = experiment: Antibiofilm activity against Pseudomonas aeruginosa PAO1 at 50 uM incubated for 24 hrs by confocal laser-scanning microscopy; assay type: functional, organism-based
Candida albicans [20] = experiment: Inhibition of biofilm formation in developmental phase of Candida albicans M2396 at 50 uM incubated for 24 hrs by crystal violet staining based analysis relative to control; assay type: functional
Escherichia coli [21] = experiment: Antibacterial activity against Escherichia coli ATCC 9637 assessed as bacterial growth inhibition at 50 uM incubated for 20 hrs by broth microdilution method relative to control; assay type: functional; design: scale not given: the % may be the effect or the level left
Escherichia coli [22] = experiment: Antibiofilm activity against Escherichia coli ATCC 9637 assessed as reduction in biofilm formation at 50 uM incubated for 24 hrs by crystal violet staining based assay relative to control; assay type: functional; design: scale not given: the % may be the effect or the level left
Pseudomonas aeruginosa [23] = experiment: Antibacterial activity against Pseudomonas aeruginosa PAR7244 infected in Galleria mellonella larvae assessed as increase in survival rate at 50 uM measured every 24 hrs (reference value: 48 %); assay type: functional

Row | Structure (SMILES) | inhibition [1] | Activity (Pseudomonas aeruginosa [2]) | Activity (Pseudomonas aeruginosa [7]) | Activity [10] | other results
1 | O=C1C=C/C(=C/Br)O1 | inactive | inactive | <=5% | inactive | Activity (HK-2): Toxic; inhibition (Candida albicans [3]): Active; Activity (Candida albicans [4]): Active; Activity [5]: Non-Toxic; Activity (Pseudomonas aeruginosa [6]): inactive; Activity (Escherichia coli [8]): inactive; Activity (Candida albicans [9]): Active; inhibition (Candida albicans [11]): inactive; Activity [12]: Non-Toxic; inhibition at 50 µM (Pseudomonas aeruginosa [13]): 75%; Activity (Candida albicans [14]): Active
2 | O=C1C=CC(=C(c2ccc([N+](=O)[O-])cc2)c2ccc([N+](=O)[O-])cc2)O1 | inactive | inactive | <=5% | inactive | 
3 | COc1ccccc1C(=C1C=CC(=O)O1)c1ccccc1OC | inactive | inactive | <=5% | inactive | inhibition at 50 µM (Staphylococcus aureus): 7%; inhibition at 50 µM (Pseudomonas aeruginosa [13]): 41%
4 | O=C1C=C(CBr)C(=C(Br)Br)O1 | inactive | inactive | <=5% | inactive | Activity (Salmonella typhimurium [15]): 72%; Activity (HK-2): Toxic; Activity [5]: Non-Toxic; inhibition at 50 µM (Staphylococcus aureus): 71%; inhibition at 50 µM (Candida albicans [16]): 51%; Activity (Candida albicans [9]): Active; Activity [12]: Non-Toxic; inhibition at 50 µM (Pseudomonas aeruginosa [13]): 60%; Activity (Salmonella typhimurium [17]): Active
5 | O=C1C=CC(=C(c2cccs2)c2cccs2)O1 | inactive | inactive | <=5% | inactive | 
6 | O=C1C=C(CBr)C(=O)O1 | inactive | inactive | <=5% | inactive | 
7 | CC1=CC(=O)OC1=C(Br)Br | inactive | inactive | 11% | inactive | Activity (Pseudomonas aeruginosa [18]): 44%; Activity (HK-2): Toxic; Activity [5]: Non-Toxic; inhibition at 50 µM (Candida albicans [16]): 38%; Activity [12]: Non-Toxic; inhibition at 50 µM (Pseudomonas aeruginosa [13]): 70%
8 | O=C1C=CC(=C(c2ccccc2)c2ccccc2)O1 | inactive | inactive | <=5% | inactive | 
9 | O=C1C=C/C(=C(\Cl)I)O1 | inactive | inactive | <=5% | inactive | Activity (Salmonella typhimurium [15]): 59%; Activity (Pseudomonas aeruginosa [19]): Active; Activity (Candida albicans [4]): Active; inhibition at 50 µM (Candida albicans [16]): 92%; Activity (Candida albicans [9]): Active; inhibition at 50 µM (Candida albicans [20]): 52%; inhibition at 50 µM (Pseudomonas aeruginosa [13]): 51%; Activity (Salmonella typhimurium [17]): Active; Activity (Escherichia coli [21]): 28%
10 | O=C1C=C/C(=C(/Br)c2ccc(C(F)(F)F)cc2)O1 | inactive | inactive | <=5% | inactive | inhibition at 50 µM (Candida albicans [16]): 75%; inhibition at 50 µM (Candida albicans [20]): 85%
11 | O=C1OC(=C(c2ccc(C(F)(F)F)cc2)c2ccc(C(F)(F)F)cc2)C=C1Br | inactive | inactive | <=5% | inactive | 
12 | O=C1OC(=C(c2ccccc2)c2ccccc2)C=C1Br | inactive | inactive | <=5% | inactive | 
13 | COc1ccc(/C(Cl)=C2\C=CC(=O)O2)cc1 | inactive | inactive | <=5% | inactive | 
14 | COc1ccc(C#CC(C#Cc2ccc(OC)cc2)=C2C=CC(=O)O2)cc1 | inactive | inactive | <=5% | inactive | inhibition at 50 µM (Staphylococcus aureus): 36%; Activity (Escherichia coli [22]): 31%; Activity (Escherichia coli [21]): 8%
15 | O=C1C=CC(=C(c2ccc(O)cc2)c2ccc(O)cc2)O1 | inactive | inactive | <=5% | inactive | inhibition at 50 µM (Staphylococcus aureus): 52%
16 | COc1ccc(/C(Br)=C2\C=CC(=O)O2)cc1 | inactive | inactive | <=5% | inactive | 

Row | Structure (SMILES) | inhibition [1] | Activity (Pseudomonas aeruginosa [2]) | Activity (Pseudomonas aeruginosa [7]) | Activity [10] | other results
17 | O=C1C=CC(=C(c2ccc(C(F)(F)F)cc2)c2ccc(C(F)(F)F)cc2)O1 | inactive | inactive | <=5% | inactive | 
18 | COc1ccc(C(=C2C=CC(=O)O2)c2ccc(OC)cc2)cc1 | inactive | inactive | <=5% | inactive | inhibition at 50 µM (Staphylococcus aureus): 44%; inhibition at 50 µM (Candida albicans [16]): 61%; inhibition at 50 µM (Candida albicans [20]): 75%
19 | COc1cccc(C(=C2C=CC(=O)O2)c2cccc(OC)c2)c1 | inactive | inactive | <=5% | inactive | Activity (HK-2): Non-Toxic; survival at 50 µM (Pseudomonas aeruginosa [23]): 72%; Activity [5]: Non-Toxic; inhibition at 50 µM (Staphylococcus aureus): 30%; inhibition at 50 µM (Candida albicans [16]): 53%; Activity [12]: Non-Toxic; inhibition at 50 µM (Candida albicans [20]): 71%; inhibition at 50 µM (Pseudomonas aeruginosa [13]): 44%
20 | COc1ccc(C(=C2C=C(Br)C(=O)O2)c2ccc(OC)c(Br)c2)cc1Br | inactive | inactive | <=5% | inactive | Activity (Escherichia coli [22]): 15%
21 | O=C1C=C/C(=C(/Cl)c2ccccc2)O1 | inactive | inactive | <=5% | inactive | 
22 | O=C1C=CC(=C(Cl)Cl)O1 | inactive | inactive | <=5% | inactive | Activity [5]: Non-Toxic; inhibition at 50 µM (Candida albicans [16]): 21%; Activity [12]: Non-Toxic; inhibition at 50 µM (Pseudomonas aeruginosa [13]): 52%
23 | COc1cccc(/C(Br)=C2\C=CC(=O)O2)c1 | inactive | inactive | <=5% | inactive | 
24 | O=C1C=C/C(=C(/Br)c2ccccc2)O1 | inactive | inactive | <=5% | inactive | 
25 | O=C1C=C/C(=C(/Br)c2cccc([N+](=O)[O-])c2)O1 | inactive | inactive | <=5% | inactive | 
26 | O=C1C=C/C(=C(/Br)c2ccc(F)cc2)O1 | inactive | inactive | <=5% | inactive | 
27 | O=C1C=CC(=C(c2ccc(F)cc2)c2ccc(F)cc2)O1 | inactive | inactive | <=5% | inactive | 
28 | O=C1C=CC(=C(c2cccc([N+](=O)[O-])c2)c2cccc([N+](=O)[O-])c2)O1 | inactive | inactive | <=5% | inactive | 
29 | O=C1C=C/C(=C(/Br)c2ccc([N+](=O)[O-])cc2)O1 | inactive | inactive | <=5% | inactive | 
30 | COc1ccc(C(=C2C=C(Br)C(=O)O2)c2ccc(OC)cc2)cc1 | inactive | inactive | <=5% | inactive | 
31 | COc1ccccc1/C(Br)=C1\C=CC(=O)O1 | inactive | inactive | <=5% | inactive | 
32 | O=C1C=CC(=C(Br)Br)O1 | inactive | inactive | <=5% | inactive | Activity (Salmonella typhimurium [15]): 67%; inhibition (Candida albicans [3]): Active; Activity (Candida albicans [4]): Active; Activity (Escherichia coli [8]): inactive; Activity (Candida albicans [9]): Active; inhibition (Candida albicans [11]): Active; Activity (Salmonella typhimurium [17]): Active; Activity (Candida albicans [14]): Active
